According to PubChem BioAssay (NCI):
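Values below derive from 48-hour exposures of cells grown in 96-well plates, with endpoints linearly interpolated between the two concentrations bracketing the appropriate inhibition level. GI50 is the concentration that inhibits growth by half. At the TGI there is no net growth.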

What was measured:
Assay in all cases: inhibition of tumour cell growth, NCI panel, 48 h
[1] = tested on: MDA-MB-435
[2] = tested on: MDA-MB-231 breast
[3] = tested on: HOP-62 NSCLC
[4] = tested on: SN12C renal
[5] = tested on: BT-549 breast
[6] = tested on: HOP-92 NSCLC
[7] = tested on: HT29 colon
[8] = tested on: MALME-3M melanoma
[9] = tested on: OVCAR-4 ovarian
[10] = tested on: SF-539 CNS
[11] = tested on: RPMI-8226 leukemia
[12] = tested on: TK-10 renal
[13] = tested on: COLO 205 colon
[14] = tested on: SK-OV-3 ovarian
[15] = tested on: SNB-75 CNS
[16] = tested on: HS 578T breast
[17] = tested on: NCI/ADR-RES ovarian
[18] = tested on: RXF 393 renal
[19] = tested on: OVCAR-3 ovarian
[20] = tested on: NCI-H226 lung
[21] = tested on: EKVX NSCLC
[22] = tested on: DU-145 prostate
[23] = tested on: IGROV1 ovarian
[24] = tested on: SK-MEL-28 melanoma
[25] = tested on: SF-268 CNS
[26] = tested on: HCT-116 colon
[27] = tested on: SR leukemia
[28] = tested on: SW-620 colon
[29] = tested on: CCRF-CEM leukemia
[30] = tested on: PC-3 prostate
[31] = tested on: OVCAR-8 ovarian
[32] = tested on: NCI-H460 lung
[33] = tested on: MOLT-4 leukemia
[34] = tested on: CAKI-1 renal
[35] = tested on: UACC-257 melanoma
[36] = tested on: K-562 leukemia
[37] = tested on: KM12 colon
[38] = tested on: A498 renal
[39] = tested on: NCI-H522 lung
[40] = tested on: SK-MEL-5 melanoma
[41] = tested on: UACC-62 melanoma
[42] = tested on: SF-295 CNS
[43] = tested on: OVCAR-5 ovarian
[44] = tested on: ACHN renal
[45] = tested on: SK-MEL-2 melanoma
[46] = tested on: MCF7 breast
[47] = tested on: HL-60(TB) leukemia
[48] = tested on: LOX IMVI melanoma
[49] = tested on: U251 CNS
[50] = tested on: 786-0 renal
[51] = tested on: T-47D breast
[52] = tested on: NCI-H23 lung
[53] = tested on: HCT-15 colon
[54] = tested on: M14 melanoma
[55] = tested on: HCC-2998 colon
[56] = tested on: UO-31 renal
[57] = tested on: A549 NSCLC
[58] = tested on: SNB-19 CNS

CC(C)(C)c1cc(/C=C2/NC(=O)NC2=O)cc(C(C)(C)C)c1O
TGI [1]: 33.4 µM
TGI [2]: 26.2 µM
TGI [3]: 33.1 µM
TGI [4]: 31.4 µM
TGI [5]: 27.3 µM
TGI [6]: 27.9 µM
TGI [7]: 31.7 µM
TGI [8]: 34.6 µM
TGI [9]: 26 µM
TGI [10]: 31.6 µM
TGI [11]: 31.9 µM
TGI [12]: 30.2 µM
TGI [13]: 28.5 µM
TGI [14]: 32 µM
TGI [15]: 25.2 µM
TGI [16]: 36 µM
TGI [17]: 34.1 µM
TGI [18]: 19.7 µM
TGI [19]: 27.9 µM
TGI [20]: 33 µM
TGI [21]: 24 µM
TGI [22]: 30.3 µM
TGI [23]: 31.1 µM
TGI [24]: 32 µM
TGI [25]: 28.8 µM
TGI [26]: 30.4 µM
TGI [27]: 33.2 µM
TGI [28]: 39.3 µM
TGI [29]: 32.8 µM
TGI [30]: 20.3 µM
TGI [31]: 38.5 µM
TGI [32]: 29.1 µM
TGI [33]: 44.6 µM
TGI [34]: 31.5 µM
TGI [35]: 29.9 µM
TGI [36]: 33.1 µM
TGI [37]: 28.5 µM
TGI [38]: 27 µM
TGI [39]: 26.4 µM
TGI [40]: 27 µM
TGI [41]: 30.5 µM
TGI [42]: 29.1 µM
TGI [43]: 30.8 µM
TGI [44]: 24.1 µM
TGI [45]: 27.2 µM
TGI [46]: 29.9 µM
TGI [47]: 25.9 µM
TGI [48]: 32.9 µM
TGI [49]: 25.8 µM
TGI [50]: 33.3 µM
TGI [51]: 11.8 µM
TGI [52]: 30.6 µM
TGI [53]: 28.2 µM

COC(=O)C1=C(OC(=O)c2ccc(Cl)cc2)C(C(=O)OC)[C@@]2(O)[C@@H](C(=O)OC)C(c3ccccc3C(F)(F)F)C[C@@H]1[C@@H]2C(=O)OC (stereo partly drawn)
GI50 [1]: 17.6 µM
TGI [1]: 50.2 µM
GI50 [2]: 2.07 µM
TGI [2]: 6.19 µM
GI50 [3]: 9.24 µM
TGI [3]: > 100 µM
GI50 [4]: 2.08 µM
TGI [4]: 6.66 µM
GI50 [5]: 4.16 µM
TGI [5]: 63.6 µM
GI50 [6]: 6.27 µM
TGI [6]: > 100 µM
GI50 [7]: 3.54 µM
TGI [7]: > 100 µM
GI50 [10]: 5.13 µM
TGI [10]: > 100 µM
GI50 [11]: 2.99 µM
TGI [11]: > 100 µM
GI50 [12]: 33 µM
TGI [12]: 78.8 µM
GI50 [13]: 3.31 µM
TGI [13]: > 100 µM
GI50 [14]: 5.99 µM
TGI [14]: 60 µM
GI50 [54]: 3.16 µM
TGI [54]: 13 µM
GI50 [16]: 3.96 µM
TGI [16]: 24.2 µM
GI50 [17]: 3.11 µM
TGI [17]: > 100 µM
GI50 [18]: 2.14 µM
TGI [18]: 5.43 µM
GI50 [19]: 20.3 µM
TGI [19]: 47.9 µM
GI50 [55]: 5.54 µM
TGI [55]: > 100 µM
GI50 [21]: 8.1 µM
TGI [21]: > 100 µM
GI50 [22]: 6.1 µM
TGI [22]: > 100 µM
GI50 [24]: 6.69 µM
TGI [24]: > 100 µM
GI50 [25]: 11 µM
TGI [25]: > 100 µM
GI50 [26]: 2.92 µM
TGI [26]: 11.4 µM
GI50 [27]: 3.94 µM
TGI [27]: > 100 µM
GI50 [28]: 3.83 µM
TGI [28]: 21.1 µM
GI50 [29]: 3.54 µM
TGI [29]: 31.2 µM
GI50 [30]: 4.5 µM
TGI [30]: > 100 µM
GI50 [31]: 2.72 µM
TGI [31]: 9.87 µM
GI50 [32]: 6.53 µM
TGI [32]: 77.1 µM
GI50 [33]: 2.7 µM
TGI [33]: 7.86 µM
GI50 [34]: 13.9 µM
TGI [34]: 36.1 µM
GI50 [35]: 2.76 µM
TGI [35]: 8.32 µM
GI50 [36]: 3.36 µM
TGI [36]: > 100 µM
GI50 [56]: 12.6 µM
TGI [56]: 31.6 µM
GI50 [37]: 23.9 µM
TGI [37]: 64.2 µM
GI50 [38]: 1.76 µM
TGI [38]: 7.25 µM
GI50 [39]: 16.4 µM
TGI [39]: 43.6 µM
GI50 [57]: 3.59 µM
TGI [57]: 28.8 µM
GI50 [58]: 6.44 µM
TGI [58]: > 100 µM
GI50 [40]: 3.46 µM
TGI [40]: 12.4 µM
GI50 [41]: 1.8 µM
TGI [41]: 3.65 µM
GI50 [43]: 54.2 µM
TGI [43]: > 100 µM
GI50 [44]: 3.19 µM
TGI [44]: > 100 µM
GI50 [45]: 15.5 µM
TGI [45]: 33.9 µM
GI50 [46]: 10.7 µM
TGI [46]: 87.5 µM
GI50 [49]: 3.26 µM
TGI [49]: 21.4 µM
GI50 [50]: 4.86 µM
TGI [50]: > 100 µM
GI50 [51]: 4.82 µM
TGI [51]: > 100 µM
GI50 [52]: 3.47 µM
TGI [52]: 16.8 µM
GI50 [53]: 2.87 µM
TGI [53]: 14.6 µM
